Measurements published in PMC11173628, “Imidazole Carbamates as a Promising Alternative for Treating Trichomoniasis: In Vitro Effects on the Growth and Gene Expression of Trichomonas vaginalis” (Molecules, 2024).
Entries after “also recorded” stand apart in the source; their conditions may differ.

Tests used:
[1] = tested on: T. vaginalis Donne ATCC 30236 trophozoites; experiment: Determination of IC50 values (anti-Trichomonas activity, trypan blue and XTT); format: cell-based, Trichomonas vaginalis; conditions: for IC50: Trichomonas vaginalis, ATCC30236, T. vaginalis Donne ATCC 30236, 24 h, 37 °C, 0–10 µM, trypan blue and XTT, read-out: IC50 (viability of T. vaginalis trophozoites); for Enhancement of trichomonacidal effect in relation to MTZ: ratio of IC50 values vs MTZ; for Enhancement of trichomonacidal effect in relation to NTZ: ratio of IC50 values vs NTZ
Method: Figure 2 Determination of the IC50 values of AGR compounds on the culture of Trichomonas vaginalis. […] The trophozoites were incubated in the presence of the compounds for 24 h at 37 °C with different concentrations of each compound. Values represent the mean ± standard deviation of three independent experiments.
The T. vaginalis Donne ATCC 30236 strain was acquired from the ATCC (American Type Culture Collection). It was cultured axenically in trypticase–yeast extract–maltose medium (TYM, at pH 6.0) supplemented with 10% sterile horse serum (previously inactivated at 56 °C for 30 min) and incubated at 37 °C [42]. The trophozoites were analyzed via motility, morphology, and trypan blue dye exclusion assays (0.4%) under an optical microscope with a magnification of 40×. The parasites were cultured for 24 h at 37 °C, corresponding to the logarithmic growth phase, and were used for anti-Trichomonas assays.
The anti-Trichomonas activity was evaluated in 1.5 mL tubes, where 2.6 × 10^5 trophozoites/mL was treated with increasing concentrations (0–10 µM) of the selected compounds. The tubes were incubated at 37 °C for 24 h. Then the trypan blue dye exclusion and XTT assay tests were used for evaluations of cell viability, as previously described. […] The IC50 values were calculated using GraphPad Prism 8.0 Inc. software, Version 8.0.2 (263) (San Diego, CA, USA).

[2] = tested on: T. vaginalis trophozoites; experiment: Kinetic growth curve of T. vaginalis in presence of compounds; format: cell-based, Trichomonas vaginalis; conditions: compound at its IC50, monitored up to 96 h
Method: The trophozoites were incubated at the IC50 values for each compound. The viability and number of trophozoites were monitored at 6, 12, 18, 24, 48, 72, and 96 h with trypan blue (0.4%) (1:1, v/v) and XTT assays.
To understand the antiparasitic activities of the compounds against T. vaginalis cultures, we produced a curve of the kinetic growth of T. vaginalis as a function of time. […] Trophozoites were observed via light microscopy, and their growth and viability were evaluated at 6, 12, 24, 48, 72, and 96 h.

[3] = In vitro cytotoxicity assay (XTT), Caco-2; conditions: human
Method: (§1) Concentration–response curves for the viability of (A) Caco-2 and (B) HT29 cells treated with increasing concentrations of AGR compounds. […] Cell viability was determined using trypan blue dye exclusion (0.4%) (1:1, v/v) in a Neubauer chamber, as well as an XTT proliferation assay. Values represent the mean ± standard deviation of three independent experiments.
(§2) The Caco-2 and HT29 cell lines were provided by Luz Maria Rocha Ramirez from Hospital Infantil de México Federico Gómez, Secretaría de Salud. Cells were cultured in DMEM medium supplemented with 10% fetal bovine serum, 1% L-glutamine, and 1% penicillin/streptomycin at 37 °C in a 5% CO2 atmosphere. […] After incubation, cell viability was assessed using the XTT assay. The results are expressed as a percentage of viable cells compared with untreated cells. The cytotoxic concentration 50 (CC50) was calculated using GraphPad Prism 7.0 software. […] The assay was performed at least three times in triplicate. The selectivity index (SI) was calculated as SI = cells CC50/trophozoites IC50.

CaCo-2 cells = experiment: In vitro cytotoxicity assay (XTT), Caco-2; conditions: CC50 CaCo-2 / IC50 trophozoites
Method: as §1, §2

[4] = In vitro cytotoxicity assay (XTT), HT29; conditions: human
Method: as §1, §2

HT29 cells = experiment: In vitro cytotoxicity assay (XTT), HT29; conditions: CC50 HT29 / IC50 trophozoites
Method: as §1, §2

[5] = tested on: T. vaginalis trophozoites (metabolic gene transcripts); experiment: Relative gene expression of T. vaginalis in presence of compounds (RT-qPCR, 2^-ΔΔCt, PK reference gene); format: cell-based, Trichomonas vaginalis; conditions: 24 h at IC50 concentration; for Increase of PFK transcripts: vs untreated control
Method: The main carbon and energy source for T. vaginalis is the fermentative carbohydrate metabolism. We sought to determine whether the death of T. vaginalis is related to changes in its metabolic genes. A gene expression assay based on RT-qPCR was performed to evaluate the transcription levels of several genes in T. vaginalis trophozoites that were incubated for 24 h at the IC50 concentration for each compound.
To evaluate the expression levels of the genes involved in the metabolism of T. vaginalis in the absence and presence of trichomonacidal compounds, the genetic expression levels of 15 genes were analyzed by means of real-time RT-qPCR. To this end, genes encoding enzymes involved in essential metabolic pathways for cell survival, such as glycolysis, the pentose phosphate pathway, structural proteins, and redox maintenance, were identified using the GenBank database (https://www.ncbi.nlm.nih.gov/genbank/ accessed on 15 January 2023) (Table 3).
The total RNA from trophozoites in the absence and presence of the compound was extracted using TRIzol® Reagent (Invitrogen, Carlsbad, CA, USA) according to the manufacturer’s instructions. The quality of RNA was assessed at 260/280 nm, and the integrity was assessed by 2.0% (w/v) agarose gel electrophoresis. For synthesis of the cDNA, samples were treated with 1 U of DNAase I enzyme (Thermo Fisher Scientific, Waltham, MA, USA). cDNA was synthesized using the primers Oligo (dT) 18 (Thermo Fisher Scientific) and RevertAid reverse transcriptase (Thermo Fisher Scientific). All synthesized cDNAs were quantified and stored at −70 °C until use.
We evaluated the expression levels of genes involved in the metabolism of T. vaginalis trophozoites in the absence and presence of trichomonacidal compounds. The amplification of the specific PCR products and the specificity of the primers of the genes proposed in this study (Table 4) were determined using the Fast SYBR® Green Master Mix kit (Applied Biosystems, Foster City, CA, USA) in the StepOnePlusTM Real-Time PCR Systems platform (Life Technologies, Foster City, CA, USA), which was carried out according to the method previously reported by Gutiérrez-Cardona et al..
The relative changes in the expression levels of the target genes (PK, CK, PFK, ALDO, TPI, GAPDH, ENOL, G6PD, 6PGDH, TKT, TALDO, PFOR, NADH, ACT, and TUB) were analyzed by the 2^−ΔΔCt method, using the PK reference gene for normalization. The curve was fitted with GraphPad Prism 8 software (GraphPad Software Inc., La Jolla, CA, USA), and statistical analysis was performed. ANOVA and the Tukey–Kramer test were used to evaluate the relative change in expression after normalization. Three replicates were included for each treatment, and all reactions were performed in triplicate.

[6] = Caco-2, CaCo-2 CC50, 48 h, 0–500 µM, XTT
[7] = HT29 cells, HT29 CC50, 48 h, 0–500 µM, XTT

SMILES | IC50 [1] | Enhancement of trichomonacidal effect in relation to MTZ [1] | Enhancement of trichomonacidal effect in relation to NTZ [1] | Effect on kinetic growth curve of T. vaginalis [2] | CC50 at 48 h [3, 6] | CaCo-2 SI (CC50/IC50) (CaCo-2 cells) | CC50 at 48 h [4, 7] | HT29 SI (CC50/IC50) (HT29 cells) | Effect on ALDO expression [5] | Expression of NADH oxidase gene [5] | Overexpression of PFOR [5] | Increase of PFK transcripts [5] | Decrease in the expression of PFOR [5] | Effect on GAPDH expression [5] | Effect on PFK expression [5] | CC50 at 48 h ([3]; Caco-2) | CC50 at 48 h [4]
Cc1ncc([N+](=O)[O-])n1CCOC(=O)NC1CCCCC1 [AGR-1] | 0.67 µM | fivefold | 10 fold | more significant delay in the logarithmic and stationary phases | 650 µM | 970.0 | 532 µM | 794 | increased | decreased | 11 fold | 1.2 fold |  |  |  |  | 
Cc1ncc([N+](=O)[O-])n1CCOC(=O)Nc1ccc(F)cc1 [AGR-4] | 0.96 µM |  |  | more significant delay in the logarithmic and stationary phases; also recorded: inhibited the growth of the parasite to a greater degree | 510 µM | 531.2 | 593 µM | 617 | reduced | decreased |  |  | 1.5 fold | reduced | negatively affected |  | 
Cc1ncc([N+](=O)[O-])n1CCOC(=O)Nc1ccc([N+](=O)[O-])cc1 [AGR-5] | 1.45 µM |  |  |  |  | 400 |  | 386 |  | decreased | 2.5 fold |  |  |  | negatively affected | 580 µM | 560 µM
Cc1ncc([N+](=O)[O-])n1CCOC(=O)Nc1ccccc1 [AGR-2] | 0.4 µM | 8 fold | 16 fold | more significant delay in the logarithmic and stationary phases | 560 µM | >1000 | 730 µM | >1000 | reduced | decreased | 7.5 fold | 1.5 fold |  | reduced |  |  | 
Cc1ncc([N+](=O)[O-])n1CCO [MTZ, metronidazole, reference compound] | 3.1 µM |  |  |  |  |  |  |  |  |  |  |  |  |  |  |  | 
CC(=O)Oc1ccccc1C(=O)Nc1ncc([N+](=O)[O-])s1 [NTZ, nitazoxanide, reference compound] | 6.62 µM |  |  |  |  | 87.6 |  | 95.7 |  |  |  |  |  |  |  |  | 
Cc1ncc([N+](=O)[O-])n1CCOC(=O)Nc1ccc(Cl)cc1 [AGR-3] | 0.64 µM | fivefold | 10 fold |  | 523 µM | 817.1 | 660 µM | >1000 | reduced |  | 7.5 fold |  |  | reduced | negatively affected |  | 
